Laboratory results as given in ChEMBL document CHEMBL3272016, “Potential inhibitors of collagen biosynthesis. 5,5-Difluoro-DL-lysine and 5,5-dimethyl-DL-lysine and their activation by lysyl-tRNA ligase” (J Med Chem, 1977).
Active and inactive are the calls of the source. The rule behind the calls is not given here.

Tests used:
[1] = Dissociation constant, pKa of the compound; type: physicochemical
P388 [2] = assay: Cytotoxicity against mouse P388 cells assessed as growth inhibition at 0.15 mM after 72 hrs by hemocytometry; type: functional; conditions: P388, 72 h, read-out: GI
L929 = assay: Inhibition of collagen biosynthesis in mouse L929 fibroblasts assessed as [3H]lysine/[14C]proline incorporation into protein at 5 mM; type: functional, cell-based
Mus musculus [3] = species on record: Mus musculus; assay: Inhibition of peptidyl lysine hydroxylase in mouse L929 fibroblasts assessed as release of [3H] as [3H]OH from [4,5-3H]lysylprotocollagen measured per mg of protein at 0.01 mM (reference value: 1228 cpm)
Mus musculus [4] = species on record: Mus musculus; assay: Inhibition of peptidyl lysine hydroxylase in mouse L929 fibroblasts assessed as release of [3H] as [3H]OH from [4,5-3H]lysylprotocollagen measured per mg of protein at 0.05 mM (reference value: 1228 cpm)
Mus musculus [5] = species on record: Mus musculus; assay: Inhibition of peptidyl lysine hydroxylase in mouse L929 fibroblasts assessed as release of [3H] as [3H]OH from [4,5-3H]lysylprotocollagen measured per mg of protein at 0.10 mM (reference value: 1228 cpm)
Mus musculus [6] = species on record: Mus musculus; assay: Inhibition of peptidyl lysine hydroxylase in mouse L929 fibroblasts assessed as release of [3H] as [3H]OH from [4,5-3H]lysylprotocollagen measured per mg of protein at 0.20 mM (reference value: 1228 cpm)
Mus musculus [7] = species on record: Mus musculus; assay: Inhibition of peptidyl lysine hydroxylase in mouse L929 fibroblasts assessed as release of [3H] as [3H]OH from [4,5-3H]lysylprotocollagen measured per mg of protein at 1 mM (reference value: 1228 cpm)
Mus musculus [8] = species on record: Mus musculus; assay: Inhibition of peptidyl lysine hydroxylase in mouse L929 fibroblasts assessed as release of [3H] as [3H]OH from [4,5-3H]lysylprotocollagen measured per mg of protein at 2 mM (reference value: 1228 cpm)
Mus musculus [9] = species on record: Mus musculus; assay: Inhibition of peptidyl lysine hydroxylase in mouse L929 fibroblasts assessed as release of [3H] as [3H]OH from [4,5-3H]lysylprotocollagen measured per mg of protein at 5 mM (reference value: 1228 cpm)
Mus musculus [10] = species on record: Mus musculus; assay: Inhibition of peptidyl lysine hydroxylase in mouse L929 fibroblasts
P388 [11] = assay: Cytotoxicity against mouse P388 cells assessed as growth inhibition at 0.55 mM after 72 hrs by hemocytometry; type: functional, cell-based
P388 [12] = assay: Cytotoxicity against mouse P388 cells assessed as growth inhibition at 0.5 mM after 72 hrs by hemocytometry; type: functional; conditions: P388, 72 h, read-out: GI
[13] = Competitive inhibition of Escherichia coli B lysyl-tRNA ligase using lysine as substrate after 15 mins by double reciprocal plot analysis; conditions: read-out: Ki(app)

Description for Escherichia coli B: Activity of Escherichia coli B lysyl-tRNA ligase after 15 mins by Lineweaver-Burk plot analysis

SMILES: NCCCC[C@H](N)C(=O)O [LYSINE]
- pKa [1]: 10.6
- Km (Escherichia coli B): 0.5 µM

SMILES: NC(=O)NO [HYDROXYUREA]
- inhibition of growth at 150 µM (P388 [2]): 87%

SMILES: NCC(F)(F)CCC(N)C(=O)O (racemic)
- pKa [1]: 6.88
- Activity (L929): inactive
- Activity (Mus musculus [3]): 1220 cpm
- Activity (Mus musculus [4]): 1270 cpm
- Activity (Mus musculus [5]): 1230 cpm
- Activity (Mus musculus [6]): 1270 cpm
- Activity (Mus musculus [7]): 1070 cpm
- Activity (Mus musculus [8]): 1080 cpm
- Activity (Mus musculus [9]): 920 cpm
- inhibition (Mus musculus [10]): inactive
- growth inhibition (GI) (P388 [11]): inactive
- Km (Escherichia coli B): 1310 µM

SMILES: NCCSC[C@H](N)C(=O)O
- pKa [1]: 9.52
- inhibition of growth at 500 µM (P388 [12]): 93%
- Km (Escherichia coli B): 1.4 µM

SMILES: CC(C)(CN)CCC(N)C(=O)O (racemic)
- pKa [1]: 10.2
- Ki [13]: 16.2 mM
- growth inhibition (GI) (P388 [11]): inactive
